# Measurements taken from ChEMBL document CHEMBL5291721, “A preclinical secondary pharmacology resource illuminates target-adverse drug reaction associations of marketed drugs” (Nat Commun, 2023).
# What was measured:
# [1] = target: T1, Alpha-2C adrenergic receptor (Homo sapiens, UniProt P18825); format: functional
# T1 sequence (P18825 whole entry): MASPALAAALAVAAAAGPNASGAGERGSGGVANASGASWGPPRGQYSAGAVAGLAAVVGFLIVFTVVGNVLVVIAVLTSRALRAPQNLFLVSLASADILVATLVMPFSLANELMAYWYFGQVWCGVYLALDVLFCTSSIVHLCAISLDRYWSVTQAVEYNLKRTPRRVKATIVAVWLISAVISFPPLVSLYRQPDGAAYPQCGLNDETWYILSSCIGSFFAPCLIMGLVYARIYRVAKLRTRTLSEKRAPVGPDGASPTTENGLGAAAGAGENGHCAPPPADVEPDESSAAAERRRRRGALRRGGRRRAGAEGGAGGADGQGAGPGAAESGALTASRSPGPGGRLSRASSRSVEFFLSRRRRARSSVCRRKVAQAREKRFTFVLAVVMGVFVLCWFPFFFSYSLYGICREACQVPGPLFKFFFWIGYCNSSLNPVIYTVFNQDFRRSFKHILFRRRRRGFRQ
# [2] = target: T2, Type-1 angiotensin II receptor (Homo sapiens, UniProt P30556)
# T2 sequence (P30556 whole entry): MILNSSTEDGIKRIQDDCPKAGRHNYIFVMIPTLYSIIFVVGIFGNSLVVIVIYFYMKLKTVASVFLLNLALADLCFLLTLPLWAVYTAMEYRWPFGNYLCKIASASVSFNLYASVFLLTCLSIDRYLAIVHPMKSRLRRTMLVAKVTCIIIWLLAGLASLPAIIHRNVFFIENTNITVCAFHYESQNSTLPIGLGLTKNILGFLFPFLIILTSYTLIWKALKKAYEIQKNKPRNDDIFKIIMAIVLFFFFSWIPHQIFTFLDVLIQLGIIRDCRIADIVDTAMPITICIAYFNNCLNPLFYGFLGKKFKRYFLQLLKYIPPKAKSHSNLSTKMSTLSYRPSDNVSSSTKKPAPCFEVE
# [3] = target: T3, Cholecystokinin receptor type A (Homo sapiens, UniProt P32238)
# T3 sequence (P32238 whole entry): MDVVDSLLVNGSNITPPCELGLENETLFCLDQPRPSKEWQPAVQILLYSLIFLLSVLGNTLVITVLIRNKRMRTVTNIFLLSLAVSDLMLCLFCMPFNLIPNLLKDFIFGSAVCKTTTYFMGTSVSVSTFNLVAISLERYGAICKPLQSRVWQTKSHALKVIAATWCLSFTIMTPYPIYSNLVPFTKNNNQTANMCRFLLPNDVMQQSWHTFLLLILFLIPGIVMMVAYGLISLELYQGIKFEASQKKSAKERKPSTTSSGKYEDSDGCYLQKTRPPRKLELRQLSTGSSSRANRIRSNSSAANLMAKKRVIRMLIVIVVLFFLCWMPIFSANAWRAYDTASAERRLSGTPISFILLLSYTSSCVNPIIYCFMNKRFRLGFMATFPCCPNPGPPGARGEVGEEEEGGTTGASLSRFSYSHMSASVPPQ
# [4] = target: T4, Muscarinic acetylcholine receptor M2 (Homo sapiens, UniProt P08172); format: functional, cell-based
# T4 sequence (P08172 whole entry): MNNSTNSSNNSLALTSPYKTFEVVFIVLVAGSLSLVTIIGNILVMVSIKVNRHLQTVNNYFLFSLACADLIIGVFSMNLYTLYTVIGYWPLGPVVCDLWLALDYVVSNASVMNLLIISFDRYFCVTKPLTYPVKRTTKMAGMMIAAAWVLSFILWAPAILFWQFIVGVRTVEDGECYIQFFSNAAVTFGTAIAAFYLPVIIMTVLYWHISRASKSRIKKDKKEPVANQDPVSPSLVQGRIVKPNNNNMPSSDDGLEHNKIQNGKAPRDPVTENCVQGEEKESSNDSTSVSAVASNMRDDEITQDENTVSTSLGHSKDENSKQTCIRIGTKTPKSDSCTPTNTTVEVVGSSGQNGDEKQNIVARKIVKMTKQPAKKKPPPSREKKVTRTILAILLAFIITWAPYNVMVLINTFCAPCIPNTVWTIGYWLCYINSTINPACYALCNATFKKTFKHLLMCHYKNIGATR
# [5] = target: Gamma-aminobutyric acid receptor subunit alpha-1 (Rattus norvegicus, UniProt P62813)
# Sequence of Gamma-aminobutyric acid receptor subunit alpha-1 (P62813 whole entry): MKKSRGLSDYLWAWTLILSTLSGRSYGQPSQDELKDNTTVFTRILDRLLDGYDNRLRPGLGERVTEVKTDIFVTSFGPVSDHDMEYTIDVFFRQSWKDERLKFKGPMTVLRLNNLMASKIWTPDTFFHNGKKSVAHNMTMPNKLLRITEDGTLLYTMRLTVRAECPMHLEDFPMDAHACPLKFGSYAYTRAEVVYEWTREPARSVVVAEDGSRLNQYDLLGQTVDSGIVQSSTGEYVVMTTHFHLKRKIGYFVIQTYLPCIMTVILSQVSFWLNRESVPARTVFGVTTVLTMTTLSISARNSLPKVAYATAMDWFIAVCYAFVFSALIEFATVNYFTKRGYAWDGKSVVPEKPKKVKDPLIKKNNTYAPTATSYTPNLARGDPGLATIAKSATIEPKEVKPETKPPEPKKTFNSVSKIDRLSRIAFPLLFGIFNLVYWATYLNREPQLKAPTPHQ
# Histamine H2 receptor = Histamine H2 receptor (Homo sapiens, UniProt P25021); format: functional, cell-based
# Sequence of Histamine H2 receptor (P25021 whole entry): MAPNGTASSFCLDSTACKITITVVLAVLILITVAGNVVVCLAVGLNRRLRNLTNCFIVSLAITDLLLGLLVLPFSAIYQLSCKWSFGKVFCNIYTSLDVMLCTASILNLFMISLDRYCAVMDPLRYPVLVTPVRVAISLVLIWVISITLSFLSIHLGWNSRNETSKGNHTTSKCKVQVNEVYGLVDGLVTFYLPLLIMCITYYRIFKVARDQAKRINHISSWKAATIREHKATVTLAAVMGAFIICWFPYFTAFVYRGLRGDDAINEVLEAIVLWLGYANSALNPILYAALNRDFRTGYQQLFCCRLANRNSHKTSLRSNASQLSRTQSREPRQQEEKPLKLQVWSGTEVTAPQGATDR
# [6] = target: T5, 5-hydroxytryptamine receptor 3A (Homo sapiens, UniProt P46098); format: functional
# T5 sequence (P46098 whole entry): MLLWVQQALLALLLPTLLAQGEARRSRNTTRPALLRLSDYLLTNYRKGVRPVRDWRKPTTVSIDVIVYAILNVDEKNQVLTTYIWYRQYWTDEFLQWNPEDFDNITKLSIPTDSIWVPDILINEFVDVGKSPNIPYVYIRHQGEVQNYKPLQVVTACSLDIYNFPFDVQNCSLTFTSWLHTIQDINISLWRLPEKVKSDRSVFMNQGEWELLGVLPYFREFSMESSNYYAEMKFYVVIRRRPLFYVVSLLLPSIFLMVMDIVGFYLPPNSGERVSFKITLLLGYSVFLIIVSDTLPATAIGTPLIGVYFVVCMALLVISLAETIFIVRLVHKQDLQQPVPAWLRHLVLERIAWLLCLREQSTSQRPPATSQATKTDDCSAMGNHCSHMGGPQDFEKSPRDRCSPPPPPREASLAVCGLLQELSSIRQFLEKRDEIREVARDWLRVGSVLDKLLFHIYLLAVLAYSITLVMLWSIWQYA
# Motilin receptor = Motilin receptor (Homo sapiens, UniProt O43193)
# Sequence of Motilin receptor (O43193 whole entry): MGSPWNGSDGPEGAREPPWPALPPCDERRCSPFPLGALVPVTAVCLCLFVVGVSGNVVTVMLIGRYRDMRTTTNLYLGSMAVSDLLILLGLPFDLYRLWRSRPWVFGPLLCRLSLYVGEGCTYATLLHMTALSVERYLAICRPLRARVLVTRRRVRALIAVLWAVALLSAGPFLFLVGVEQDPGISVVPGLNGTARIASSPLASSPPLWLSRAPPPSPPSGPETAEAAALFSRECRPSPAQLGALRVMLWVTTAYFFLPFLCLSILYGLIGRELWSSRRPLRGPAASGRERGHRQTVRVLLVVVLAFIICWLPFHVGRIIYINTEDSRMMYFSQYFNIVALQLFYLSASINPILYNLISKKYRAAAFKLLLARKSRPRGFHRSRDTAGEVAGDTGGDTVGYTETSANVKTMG
# Thromboxane A2 receptor = target: T6, Thromboxane A2 receptor (Homo sapiens, UniProt P21731)
# T6 sequence (P21731 whole entry): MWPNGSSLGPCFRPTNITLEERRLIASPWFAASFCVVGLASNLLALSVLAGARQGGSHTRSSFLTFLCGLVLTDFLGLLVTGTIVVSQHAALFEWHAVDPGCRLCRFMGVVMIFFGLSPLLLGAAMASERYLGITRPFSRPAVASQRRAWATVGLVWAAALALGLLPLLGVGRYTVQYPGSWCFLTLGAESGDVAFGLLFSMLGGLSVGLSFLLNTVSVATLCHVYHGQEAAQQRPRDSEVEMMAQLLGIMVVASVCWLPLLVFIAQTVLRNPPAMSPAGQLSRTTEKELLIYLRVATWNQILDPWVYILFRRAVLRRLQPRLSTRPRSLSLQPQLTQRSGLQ
# Further: assay procedure not described here.
Structure (SMILES),AC50 [1] [µM],AC50 [2] [µM],AC50 [3] [µM],AC50 [4] [µM],AC50 [5] [µM],AC50 (Histamine H2 receptor) [µM],AC50 [6] [µM],AC50 (Motilin receptor) [µM],AC50 (Thromboxane A2 receptor) [µM]
CN1CC(=O)N2[C@H](c3ccc4c(c3)OCO4)c3[nH]c4ccccc4c3C[C@@H]2C1=O,> 10,> 30,> 30,> 10,> 10,> 10,> 30,> 10,> 30
C=C1CC[C@@]2(O)[C@H]3Cc4ccc(O)c5c4[C@@]2(CCN3CC2CC2)[C@H]1O5,> 30,> 30,> 30,> 30,> 30,> 30,> 30,> 30,> 30
CN1CCc2cccc3c2[C@H]1Cc1ccc(O)c(O)c1-3 [APOMORPHINE],3.2,> 30,> 30,> 10,> 10,> 10,,> 10,> 30
CC(C)c1c(C(=O)Nc2ccccc2)c(-c2ccccc2)c(-c2ccc(F)cc2)n1CC[C@@H](O)C[C@@H](O)CC(=O)O [ATORVASTATIN],> 10,> 30,> 30,,> 10,> 10,> 30,> 10,> 30
NC(CO)C(=O)NNCc1ccc(O)c(O)c1O (stereo not drawn) [BENSERAZIDE],> 10,> 30,> 30,> 10,> 10,> 10,> 30,> 10,> 30
CN(C)C(=O)OC1N=C(c2ccccc2)c2cc(Cl)ccc2N(C)C1=O (stereo not drawn) [CAMAZEPAM],> 10,> 30,> 30,> 10,> 10,> 10,> 10,> 10,> 30
CC(C)C(=O)OCC(=O)[C@@]12O[C@H](C3CCCCC3)O[C@@H]1C[C@H]1[C@@H]3CCC4=CC(=O)C=C[C@]4(C)[C@H]3[C@@H](O)C[C@@]12C [CICLESONIDE],> 10,> 10,> 10,> 10,> 30,> 10,> 30,> 10,> 10
CN1C(=O)CC(=O)N(c2ccccc2)c2cc(Cl)ccc21 [CLOBAZAM],> 10,> 10,> 10,> 10,> 10,> 10,> 10,> 10,> 10
[H]/N=C(/N)c1ccc(NCc2nc3cc(C(=O)N(CCC(=O)O)c4ccccn4)ccc3n2C)cc1 [DABIGATRAN],> 30,> 30,> 30,> 30,> 30,> 30,> 30,> 30,
